Measured values: patent US20170129916A1, “NOVEL BETULINIC PROLINE IMIDAZOLE DERIVATIVES AS HIV INHIBITORS” (HETERO RESEARCH FOUNDATION, priority 2014, published 2017)

Experiment: Single dose oral pharmacokinetic study
Assay type: in vivo
Conditions: mouse, mice, 30 mg/kg, plasma; for AUC(0-t): read-out: Mice oral PK @30 mg/kg AUC 0-t; for Cmax: read-out: Mice oral PK @30 mg/kg Cmax
Description: The test item was administered through oral route to animals (rat/mice) at 30 mg/kg dose in a suitable vehicle at 10 ml/kg dose volume. Blood samples (˜50 uL at each time point) were collected from retro-orbital plexus using K3 EDTA as anticoagulant in eppend; orf tubes at defined time intervals under light ether anesthesia. The samples were centrifuged at 3500×g to separate plasma and stored at −80° C. until analysis.
Sample analysis: Test samples were analyzed using LC-MS-MS after developing fit-for-purpose method for each of test compound.

| SMILES | AUC(0-t) [µg·h/mL] | Cmax [ng/mL] |
| --- | --- | --- |
| C=C(C)[C@@H]1CC[C@]2(C(=O)N3CCC[C@H]3c3ncc(-c4ccc(C(F)(F)F)cc4)[nH]3)CC[C@]3(C)[C@H](CC[C@@H]4[C@@]5(C)CC[C@H](OC(=O)[C@H]6C[C@@H](C(=O)O)C6(C)C)C(C)(C)[C@@H]5CC[C@]43C)[C@@H]12 [Compound 6, (1R,3S)-2,2-dimethyl-3-((((1R,3aS,5aR,5bR,7aR,9S,11aR,11bR,13aR,13bR)-5a,5b,8,8,11a-pentamethyl-1-(prop-1-en-2-yl)-3a-((S)-2-(5-(4-(trifluoromethyl)phenyl)-1H-imidazol-2-yl)pyrrolidine-1-carbonyl)icosahydro-1H-cyclopenta[a]chrysen-9-yl)oxy)carbonyl)cyclobutane-1-carboxylic acid] | 93.4 | 3100 |
| C=C(C)[C@@H]1CC[C@]2(C(=O)N3CCC[C@H]3c3ncc(-c4ccc(Cl)cc4)[nH]3)CC[C@]3(C)[C@H](CC[C@@H]4[C@@]5(C)CC[C@H](OC(=O)[C@H]6C[C@@H](C(=O)O)C6(C)C)C(C)(C)[C@@H]5CC[C@]43C)[C@@H]12 [Compound 19, (1R,3S)-3-((((1R,3aS,5aR,5bR,7aR,9S,11aR,11bR,13aR,13bR)-3a-((S)-2-(5-(4-chlorophenyl)-1H-imidazol-2-yl)pyrrolidine-1-carbonyl)-5a,5b,8,8,11a-pentamethyl-1-(prop-1-en-2-yl)icosahydro-1H-cyclopenta[a]chrysen-9-yl)oxy)carbonyl)-2,2-dimethylcyclobutane-1-carboxylic acid] | 183 | 7500 |
| C=C(C)[C@@H]1CC[C@]2(C(=O)N3C4CCC3CC(n3c(C)nnc3C(C)C)C4)CC[C@]3(C)[C@H](CC[C@@H]4[C@@]5(C)CC[C@H](OC(=O)[C@H]6C[C@@H](C(=O)O)C6(C)C)C(C)(C)[C@@H]5CC[C@]43C)[C@@H]12 (stereo partly drawn) [Compound 38, (1R,3S)-3-((((1R,3aS,5aR,5bR,7aR,9S,11aR,11bR,13aR,13bR)-3a-((1R,3R,5S)-3-(3-isopropyl-5-methyl-4H-1,2,4-triazol-4-yl)-8-azabicyclo[3.2.1]octane-8-carbonyl)-5a,5b,8,8,11a-pentamethyl-1-(prop-1-en-2-yl)icosahydro-1H-cyclopenta[a]chrysen-9-yl)oxy)carbonyl)-2,2-dimethylcyclobutane-1-carboxylic acid] | 127 | 7350 |
| C=C(C)[C@@H]1CC[C@]2(C(=O)N3CCC[C@H]3c3ncc(-c4ccccn4)[nH]3)CC[C@]3(C)[C@H](CC[C@@H]4[C@@]5(C)CC[C@H](OC(=O)CC(C)(C)C(=O)O)C(C)(C)[C@@H]5CC[C@]43C)[C@@H]12 [Compound 39, 2,2-dimethyl-4-oxo-4-(((1R,3aS,5aR,5bR,7aR,9S,11aR,11bR,13aR,13bR)-5a,5b,8,8,11a-pentamethyl-1-(prop-1-en-2-yl)-3a-((S)-2-(5-(pyridin-2-yl)-1H-imidazol-2-yl)pyrrolidine-1-carbonyl)icosahydro-1H-cyclopenta[a]chrysen-9-yl)oxy)butanoic acid] | 80.9 | 5690 |
| C=C(C)[C@@H]1CC[C@]2(C(=O)N3CCC[C@H]3c3ncc(-c4ccc(F)cc4)[nH]3)CC[C@]3(C)[C@H](CC[C@@H]4[C@@]5(C)CC[C@H](OC(=O)CC(C)(C)CC(=O)O)C(C)(C)[C@@H]5CC[C@]43C)[C@@H]12 [Compound 41, 5-(((1R,3aS,5aR,5bR,7aR,9S,11aR,11bR,13aR,13bR)-3a-((S)-2-(5-(4-fluorophenyl)-1H-imidazol-2-yl)pyrrolidine-1-carbonyl)-5a,5b,8,8,11a-pentamethyl-1-(prop-1-en-2-yl)icosahydro-1H-cyclopenta[a]chrysen-9-yl)oxy)-3,3-dimethyl-5-oxopentanoic acid] | 258 | 14500 |
